Toxic doses and inconclusive results are not listed.
Tested on: L1210 leukemia ip in BDF1 mice, survival T/C
Assay: NCI In Vivo Anticancer Drug Screen. Data for tumor model L1210 Leukemia (intraperitoneal) in B6D2F1 (BDF1) mice
Conditions: endpoint: mean survival time, higher = longer survival
Summary of the method: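 Mice bearing the transplanted tumor received compound or vehicle. Survival of the treated group was divided by that of the vehicle-treated control group to give the ratio.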

[1] = dose: 75.0 mg/kg/injection, schedule: Q01DX001 (ip), vehicle: saline
[2] = dose: 150.0 mg/kg/injection, schedule: Q01DX001 (ip), vehicle: saline
[3] = dose: 300.0 mg/kg/injection, schedule: Q01DX001 (ip), vehicle: saline
[4] = dose: 100.0 mg/kg/injection, schedule: Q01DX001 (ip), vehicle: saline with Tween-80
[5] = dose: 100.0 mg/kg/injection, schedule: Q04DX002 (ip), vehicle: Klucel (hydroxypropylcellulose) (HPC)
[6] = dose: 200.0 mg/kg/injection, schedule: Q04DX002 (ip), vehicle: Klucel (hydroxypropylcellulose) (HPC)
[7] = dose: 400.0 mg/kg/injection, schedule: Q04DX002 (ip), vehicle: Klucel (hydroxypropylcellulose) (HPC)
[8] = dose: 100.0 mg/kg/injection, schedule: Q01DX001 (ip), vehicle: saline
[9] = dose: 200.0 mg/kg/injection, schedule: Q01DX001 (ip), vehicle: saline
[10] = dose: 400.0 mg/kg/injection, schedule: Q01DX001 (ip), vehicle: saline
[11] = dose: 100.0 mg/kg/injection, schedule: Q04DX003 (ip), vehicle: saline with Tween-80
[12] = dose: 200.0 mg/kg/injection, schedule: Q04DX003 (ip), vehicle: saline with Tween-80
[13] = dose: 400.0 mg/kg/injection, schedule: Q04DX003 (ip), vehicle: saline with Tween-80

## CC(=O)Oc1ccc(N(CCO)CCO)cc1OC(C)=O
dose: 1.17 mg/kg/injection, schedule: Q01DX001 (ip), vehicle: water
  T/C: 103 % of control
dose: 2.34 mg/kg/injection, schedule: Q01DX001 (ip), vehicle: water
  T/C: 97 % of control
dose: 4.68 mg/kg/injection, schedule: Q01DX001 (ip), vehicle: water
  T/C: 100 % of control

## ClCC/C=C\C=C\CCCl
[1]
  T/C: 93 % of control
dose: 75.0 mg/kg/injection, schedule: Q04DX003 (ip), vehicle: saline
  T/C: 107 % of control
[2]
  T/C: 105 % of control
dose: 150.0 mg/kg/injection, schedule: Q04DX003 (ip), vehicle: saline
  T/C: 111 % of control
[3]
  T/C: 93 % of control
dose: 300.0 mg/kg/injection, schedule: Q04DX003 (ip), vehicle: saline
  T/C: 107 % of control

## Nc1cc(Cl)ccc1N1CCCC1
dose: 100.0 mg/kg/injection, schedule: Q04DX003 (ip), vehicle: saline
  T/C: 94 % of control
dose: 200.0 mg/kg/injection, schedule: Q04DX003 (ip), vehicle: saline
  T/C: 90 % of control

## O=C1O/C(=C\c2ccccc2)C(O)=C1c1ccccc1
[4]
  T/C: 100 % of control

## c1ccc(-c2nc[nH]c2-c2ccccc2)cc1
dose: 100.0 mg/kg/injection, schedule: Q01DX009 (ip), vehicle: Klucel (hydroxypropylcellulose) (HPC)
  T/C: 96 % of control
dose: 100.0 mg/kg/injection, schedule: Q04DX003 (ip), vehicle: Klucel (hydroxypropylcellulose) (HPC)
  T/C: 105 % of control
dose: 200.0 mg/kg/injection, schedule: Q01DX009 (ip), vehicle: Klucel (hydroxypropylcellulose) (HPC)
  T/C: 91 % of control
dose: 200.0 mg/kg/injection, schedule: Q04DX003 (ip), vehicle: Klucel (hydroxypropylcellulose) (HPC)
  T/C: 100 % of control
dose: 400.0 mg/kg/injection, schedule: Q01DX009 (ip), vehicle: Klucel (hydroxypropylcellulose) (HPC)
  T/C: 96 % of control
dose: 400.0 mg/kg/injection, schedule: Q04DX003 (ip), vehicle: Klucel (hydroxypropylcellulose) (HPC)
  T/C: 100 % of control

## COC1OC2COC(c3ccccc3)OC2C(NC(C)=O)C1O (centres undefined)
[5]
  T/C: 101 % of control
[6]
  T/C: 111 % of control
[7]
  T/C: 105 % of control

## Cc1ccc(Cl)cc1NC(=O)CCc1ccccc1
[5]
  T/C: 91 % of control
[6]
  T/C: 94 % of control
[7]
  T/C: 91 % of control

## O=C(N/N=C/c1ccc2c(c1)OCO2)c1cccc2ccccc12
[8]
  T/C: 97 % of control
[9]
  T/C: 86 % of control
[10]
  T/C: 97 % of control

## CCCCOP(=O)(O)OCCCC.[Cd]
dose: 3.0 mg/kg/injection, schedule: Q01DX009 (ip), vehicle: Klucel (hydroxypropylcellulose) (HPC)
  T/C: 96 % of control
dose: 6.0 mg/kg/injection, schedule: Q01DX009 (ip), vehicle: Klucel (hydroxypropylcellulose) (HPC)
  T/C: 96 % of control
dose: 12.0 mg/kg/injection, schedule: Q01DX009 (ip), vehicle: Klucel (hydroxypropylcellulose) (HPC)
  T/C: 95 % of control
dose: 12.5 mg/kg/injection, schedule: Q01DX009 (ip), vehicle: Klucel (hydroxypropylcellulose) (HPC)
  T/C: 96 % of control
dose: 25.0 mg/kg/injection, schedule: Q01DX009 (ip), vehicle: Klucel (hydroxypropylcellulose) (HPC)
  T/C: 94 % of control

## CCC(Cl)COP(=O)(OC(c1ccc(Cl)c(Cl)c1)P(=O)(OCC(Cl)CC)OCC(Cl)CC)C(CC)CCl (centres undefined)
[4]
  T/C: 104 % of control
dose: 200.0 mg/kg/injection, schedule: Q01DX001 (ip), vehicle: saline with Tween-80
  T/C: 95 % of control
dose: 400.0 mg/kg/injection, schedule: Q01DX001 (ip), vehicle: saline with Tween-80
  T/C: 101 % of control

## NCCCCC(N)C(=O)NCCCNCCCCNCCCNC(=O)C(N)CCCCN (centres undefined)
dose: 3.0 mg/kg/injection, schedule: Q01DX Z (ip), vehicle: saline
  T/C: 104 % of control
dose: 10.0 mg/kg/injection, schedule: Q01DX Z (ip), vehicle: saline
  T/C: 94 % of control
dose: 30.0 mg/kg/injection, schedule: Q01DX Z (ip), vehicle: saline
  T/C: 93 % of control
dose: 100.0 mg/kg/injection, schedule: Q01DX Z (ip), vehicle: saline
  T/C: 106 % of control

## Cc1cn(C2OC(C(O)C(N)=O)C(O)C2O)c(=O)[nH]c1=O (centres undefined)
[8]
  T/C: 97 % of control
[9]
  T/C: 114 % of control
[10]
  T/C: 101 % of control

## COc1ccc(C(=O)C[N+](=O)[O-])cc1
dose: 100.0 mg/kg/injection, schedule: Q01DX009 (ip), vehicle: saline with Tween-80
  T/C: 94 % of control
[11]
  T/C: 106 % of control
dose: 200.0 mg/kg/injection, schedule: Q01DX009 (ip), vehicle: saline with Tween-80
  T/C: 99 % of control
[12]
  T/C: 103 % of control
[13]
  T/C: 101 % of control

## COc1c2c(c(OC(C)=O)c3c1C(=O)c1ccccc1C3=O)CCCC2
dose: 6.25 mg/kg/injection, schedule: Q01DX001 (ip), vehicle: saline
  T/C: 100 % of control
dose: 12.5 mg/kg/injection, schedule: Q01DX001 (ip), vehicle: saline
  T/C: 96 % of control
dose: 25.0 mg/kg/injection, schedule: Q01DX001 (ip), vehicle: saline
  T/C: 101 % of control
dose: 50.0 mg/kg/injection, schedule: Q01DX001 (ip), vehicle: saline
  T/C: 95 % of control
[8]
  T/C: 93 % of control

## O=NN(CCCl)C(=O)NC1CCC(CC2CCC(NC(=O)N(CCCl)N=O)CC2)CC1 (centres undefined)
dose: 6.0 mg/kg/injection, schedule: Q01DX001 (ip), vehicle: gum acacia
  T/C: 105 % of control
dose: 12.0 mg/kg/injection, schedule: Q01DX001 (ip), vehicle: gum acacia
  T/C: 151 % of control
dose: 46.0 mg/kg/injection, schedule: Q01DX001 (ip), vehicle: gum acacia
  T/C: 184 % of control
dose: 93.0 mg/kg/injection, schedule: Q01DX001 (ip), vehicle: gum acacia
  T/C: 298 % of control
dose: 187.0 mg/kg/injection, schedule: Q01DX001 (ip), vehicle: gum acacia
  T/C: 315 % of control
dose: 250.0 mg/kg/injection, schedule: Q01DX001 (ip), vehicle: gum acacia
  T/C: 318 % of control
dose: 375.0 mg/kg/injection, schedule: Q01DX001 (ip), vehicle: gum acacia
  T/C: 245 % of control

## COc1ccc(NC(=O)CC(C)=O)cc1
dose: 100.0 mg/kg/injection, schedule: Q01DX001 (ip), vehicle: other
  T/C: 92 % of control
[11]
  T/C: 94 % of control
dose: 200.0 mg/kg/injection, schedule: Q01DX001 (ip), vehicle: other
  T/C: 97 % of control
[12]
  T/C: 100 % of control
dose: 400.0 mg/kg/injection, schedule: Q01DX001 (ip), vehicle: other
  T/C: 103 % of control
[13]
  T/C: 99 % of control

## O=C(OC1CCC(c2ccccc2)C1)c1cc([N+](=O)[O-])cc([N+](=O)[O-])c1 (centres undefined)
dose: 75.0 mg/kg/injection, schedule: Q04DX003 (ip), vehicle: other
  T/C: 96 % of control
dose: 150.0 mg/kg/injection, schedule: Q04DX003 (ip), vehicle: other
  T/C: 92 % of control
dose: 300.0 mg/kg/injection, schedule: Q04DX003 (ip), vehicle: other
  T/C: 87 % of control

## CN1CCN(Cn2cnc3c2c(=O)n(C)c(=O)n3C)CC1
[1]
  T/C: 92 % of control
[2]
  T/C: 100 % of control
[3]
  T/C: 122 % of control

## O=C(Nc1ccc(C2=NCCN2)cc1)c1cccc2c(C(=O)Nc3ccc(C4=NCCN4)cc3)cccc12
dose: 9.7 mg/kg/injection, schedule: Q01DX Z (ip), vehicle: carboxymethylcellulose (CMC)
  T/C: 94 % of control
dose: 14.6 mg/kg/injection, schedule: Q01DX Z (ip), vehicle: carboxymethylcellulose (CMC)
  T/C: 107 % of control
dose: 22.0 mg/kg/injection, schedule: Q01DX Z (ip), vehicle: carboxymethylcellulose (CMC)
  T/C: 122 % of control
dose: 30.0 mg/kg/injection, schedule: Q01DX Z (ip), vehicle: carboxymethylcellulose (CMC)
  T/C: 156 % of control
dose: 33.0 mg/kg/injection, schedule: Q01DX Z (ip), vehicle: carboxymethylcellulose (CMC)
  T/C: 124 % of control
dose: 49.0 mg/kg/injection, schedule: Q01DX Z (ip), vehicle: carboxymethylcellulose (CMC)
  T/C: 155 % of control
dose: 60.0 mg/kg/injection, schedule: Q01DX Z (ip), vehicle: carboxymethylcellulose (CMC)
  T/C: 204 % of control
dose: 74.0 mg/kg/injection, schedule: Q01DX Z (ip), vehicle: carboxymethylcellulose (CMC)
  T/C: 155 % of control
dose: 111.0 mg/kg/injection, schedule: Q01DX Z (ip), vehicle: carboxymethylcellulose (CMC)
  T/C: 176 % of control
dose: 120.0 mg/kg/injection, schedule: Q01DX Z (ip), vehicle: carboxymethylcellulose (CMC)
  T/C: 175 % of control

## CC(C)CCCC(C)CCO (centres undefined)
dose: 50.0 mg/kg/injection, schedule: Q01DX009 (ip), vehicle: saline
  T/C: 97 % of control
dose: 100.0 mg/kg/injection, schedule: Q01DX009 (ip), vehicle: saline
  T/C: 105 % of control
dose: 200.0 mg/kg/injection, schedule: Q01DX009 (ip), vehicle: saline
  T/C: 103 % of control
